Measurements as given in ChEMBL document CHEMBL1144573, “Lead optimization of [(S)-gamma-(arylamino)prolyl]thiazolidine focused on gamma-substituent: Indoline compounds as potent DPP-IV inhibitors” (Bioorg Med Chem, 2007).

Key:
Dipeptidyl peptidase 4 [1] = biological target: Dipeptidyl peptidase 4 (Rattus norvegicus, UniProt P14740); assay: Inhibition of DPP4 in rat plasma by fluorescence assay; assay type: cell-free
Dipeptidyl peptidase 4 [2] = biological target: Dipeptidyl peptidase 4 (Homo sapiens, UniProt P27487); assay type: cell-free, Plasma
Dipeptidyl peptidase 4 (Homo sapiens, UniProt P27487), sequence (P27487 whole entry): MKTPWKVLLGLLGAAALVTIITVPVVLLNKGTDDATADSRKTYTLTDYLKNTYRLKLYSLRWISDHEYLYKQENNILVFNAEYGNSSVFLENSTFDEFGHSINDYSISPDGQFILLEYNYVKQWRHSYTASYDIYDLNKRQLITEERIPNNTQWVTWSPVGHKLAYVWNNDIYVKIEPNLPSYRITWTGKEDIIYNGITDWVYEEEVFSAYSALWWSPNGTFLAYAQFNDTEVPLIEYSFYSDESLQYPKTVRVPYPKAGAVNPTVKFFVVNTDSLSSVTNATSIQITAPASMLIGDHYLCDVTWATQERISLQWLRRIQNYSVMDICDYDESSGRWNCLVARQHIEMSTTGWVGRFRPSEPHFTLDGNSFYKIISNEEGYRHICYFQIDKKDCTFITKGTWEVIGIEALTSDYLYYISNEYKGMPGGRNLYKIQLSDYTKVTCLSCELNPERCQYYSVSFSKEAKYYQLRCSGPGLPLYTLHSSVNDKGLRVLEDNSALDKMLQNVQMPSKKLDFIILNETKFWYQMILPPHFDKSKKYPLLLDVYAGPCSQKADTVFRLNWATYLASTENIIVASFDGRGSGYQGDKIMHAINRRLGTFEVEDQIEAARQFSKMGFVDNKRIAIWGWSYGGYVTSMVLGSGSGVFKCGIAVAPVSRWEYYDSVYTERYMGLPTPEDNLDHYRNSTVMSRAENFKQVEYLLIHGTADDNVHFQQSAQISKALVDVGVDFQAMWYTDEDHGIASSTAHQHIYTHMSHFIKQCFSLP

Dipeptidyl peptidase 4 (Rattus norvegicus, UniProt P14740), sequence (P14740 whole entry): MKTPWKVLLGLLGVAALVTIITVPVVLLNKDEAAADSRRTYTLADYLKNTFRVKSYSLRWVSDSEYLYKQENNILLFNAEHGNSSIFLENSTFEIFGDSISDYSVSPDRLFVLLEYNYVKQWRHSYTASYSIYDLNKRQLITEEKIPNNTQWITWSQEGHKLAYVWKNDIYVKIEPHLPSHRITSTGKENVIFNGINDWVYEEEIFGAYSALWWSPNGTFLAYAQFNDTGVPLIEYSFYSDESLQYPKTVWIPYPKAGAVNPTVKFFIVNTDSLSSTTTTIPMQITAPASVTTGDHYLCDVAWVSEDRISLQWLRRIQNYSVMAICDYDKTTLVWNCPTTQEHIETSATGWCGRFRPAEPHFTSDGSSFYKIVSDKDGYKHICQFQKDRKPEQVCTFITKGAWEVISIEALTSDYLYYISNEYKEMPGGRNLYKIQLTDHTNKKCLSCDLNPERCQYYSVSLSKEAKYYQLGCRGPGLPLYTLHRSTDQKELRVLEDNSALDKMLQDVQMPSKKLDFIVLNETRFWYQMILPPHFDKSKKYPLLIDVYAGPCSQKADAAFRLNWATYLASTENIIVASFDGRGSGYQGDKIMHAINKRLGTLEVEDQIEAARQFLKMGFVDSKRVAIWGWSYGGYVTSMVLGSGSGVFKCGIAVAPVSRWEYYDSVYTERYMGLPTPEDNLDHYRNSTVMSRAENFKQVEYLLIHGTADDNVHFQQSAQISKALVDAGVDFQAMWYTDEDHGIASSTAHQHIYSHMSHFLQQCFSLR

Row | IC50 (Dipeptidyl peptidase 4 [1]) [nM] | IC50 (Dipeptidyl peptidase 4 [2]) [nM] | SMILES
1 | 10.1 |  | O=C([C@@H]1C[C@H](N2CCc3cc(F)ccc32)CN1)N1CCSC1
2 | 10.7 |  | O=C([C@@H]1C[C@H](N2CCc3cc(Br)ccc32)CN1)N1CCSC1
3 | > 300 | > 300 | O=C([C@@H]1C[C@H](NS(=O)(=O)c2ccccc2)CN1)N1CCSC1
4 | 10.3 |  | O=C([C@@H]1C[C@H](N2CCc3cc([N+](=O)[O-])ccc32)CN1)N1CCSC1
5 | 23 |  | N#Cc1ccc(CN(CCO)[C@@H]2CN[C@H](C(=O)N3CCSC3)C2)cc1
6 | 13.6 |  | CN(Cc1ccc(C#N)cc1)[C@@H]1CN[C@H](C(=O)N2CCSC2)C1
7 | > 300 | > 300 | O=C(O[C@@H]1CN[C@H](C(=O)N2CCSC2)C1)c1ccccc1
8 |  | > 300 | O=C(N[C@@H]1CN[C@H](C(=O)N2CCSC2)C1)c1ccccc1
9 | > 300 | > 300 | N#Cc1ccc(C(=O)O[C@@H]2CN[C@H](C(=O)N3CCSC3)C2)cc1
10 | 19.5 |  | O=C([C@@H]1C[C@H](N2CCc3ccccc32)CN1)N1CCSC1
11 | > 300 | > 300 | N#Cc1ccc(S(=O)(=O)N[C@@H]2CN[C@H](C(=O)N3CCSC3)C2)cc1
12 | 13.4 |  | O=C([C@@H]1C[C@H](N2CCc3cc(Cl)ccc32)CN1)N1CCSC1
13 | 54.9 |  | COc1ccc(N[C@@H]2CN[C@H](C(=O)N3CCSC3)C2)cc1
